ChEMBL document CHEMBL1687935, “Ferrocenyl chalcones versus organic chalcones: a comparative study of their nematocidal activity” (Bioorg Med Chem, 2011)
pIC50: −log10 of the molar value. Calls of active or inactive are those of the source. The calls are words filed in the database; no cut-off is given here.

Assays:
Caenorhabditis elegans [1] = test: Nematocidal activity against Caenorhabditis elegans assessed as mortality on day 3; type: functional; set-up: concentration or dose not given beside the values
Caenorhabditis elegans [2] = test: Nematocidal activity against Caenorhabditis elegans assessed as inhibition of reproduction on day 3; type: functional
Plasmodium falciparum = test: Antiplasmodial activity against Plasmodium falciparum; type: functional, organism-based
[3] = Toxicity against Globodera pallida
[4] = Toxicity against Globodera rostochiensis
[5] = Inhibition of Globodera pallida hatching; type: functional
[6] = Inhibition of Globodera rostochiensis hatching; type: functional

Row | Compound | Activity (Caenorhabditis elegans [1]) | inhibition (INH) (Caenorhabditis elegans [2]) | also measured
1 | O=C(/C=C/c1ccccc1)c1ccccc1Cl | Active | – | inhibition (Caenorhabditis elegans [2]): Active
2 | CCOc1ccc(C(=O)/C=C/c2ccccc2)cc1 | 100% | 0% | –
3 | O=C(/C=C/c1ccccc1)c1ccc(F)cc1F | 100% | 0% | –
4 | O=C(/C=C/c1cccnc1)c1ccc(F)cc1 | 100% | 0% | pIC50 (Plasmodium falciparum): 4.77
5 | O=C(/C=C/c1ccccc1)c1cccs1 | 100% | 0% | –
6 | O=C(/C=C/c1ccccc1)c1ccc(Cl)cc1Cl | 100% | 0% | –
7 | O=C(/C=C/c1ccccc1)c1ccccc1 [CHALCONE] | 100% | 0% | LC50 [3]: 33 mM; LC50 [4]: 33 mM; pIC50 [5]: 2.15; pIC50 [6]: 2.15
8 | COc1ccc(C(=O)/C=C/c2ccccc2)c(OC)c1 | 100% | 0% | –
9 | O=C(/C=C/c1ccccc1)c1cccc(Cl)c1 | 100% | 0% | –
10 | CCCCOc1ccc(C(=O)/C=C/c2ccccc2)cc1 | Active | – | inhibition (Caenorhabditis elegans [2]): Active
11 | O=C(/C=C/c1ccccc1)c1ccco1 | Active | – | inhibition (Caenorhabditis elegans [2]): Active
